Several values for one entry are separate records, joined by “and”; a condition that tells them apart may be missing. Equal entries are not always repeated. Inconclusive results and toxic doses are left out. No stated cut-off is given here; in the data, active means T/C of 150% or more; inactive means T/C below 125%.
Tested on: L1210 leukemia ip in BDF1 mice, survival T/C
Test: NCI In Vivo Anticancer Drug Screen. Data for tumor model L1210 Leukemia (intraperitoneal) in B6D2F1 (BDF1) mice
Conditions: endpoint: mean survival time, higher = longer survival
Procedure, shortened: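 Mice bearing the transplanted tumor received compound or vehicle. Survival of the treated group was divided by that of the vehicle-treated control group to give the ratio.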

[1] = dose: 100.0 mg/kg/injection, schedule: Q01DX009 (ip), vehicle: Klucel (hydroxypropylcellulose) (HPC)
[2] = dose: 100.0 mg/kg/injection, schedule: Q04DX003 (ip), vehicle: Klucel (hydroxypropylcellulose) (HPC)
[3] = dose: 200.0 mg/kg/injection, schedule: Q01DX009 (ip), vehicle: Klucel (hydroxypropylcellulose) (HPC)
[4] = dose: 200.0 mg/kg/injection, schedule: Q04DX003 (ip), vehicle: Klucel (hydroxypropylcellulose) (HPC)
[5] = dose: 400.0 mg/kg/injection, schedule: Q01DX009 (ip), vehicle: Klucel (hydroxypropylcellulose) (HPC)
[6] = dose: 400.0 mg/kg/injection, schedule: Q04DX003 (ip), vehicle: Klucel (hydroxypropylcellulose) (HPC)
[7] = dose: 100.0 mg/kg/injection, schedule: Q04DX003 (ip), vehicle: saline
[8] = dose: 200.0 mg/kg/injection, schedule: Q04DX003 (ip), vehicle: saline
[9] = dose: 400.0 mg/kg/injection, schedule: Q04DX003 (ip), vehicle: saline
[10] = dose: 100.0 mg/kg/injection, schedule: Q01DX001 (ip), vehicle: saline
[11] = dose: 200.0 mg/kg/injection, schedule: Q01DX001 (ip), vehicle: saline
[12] = dose: 400.0 mg/kg/injection, schedule: Q01DX001 (ip), vehicle: saline
[13] = dose: 100.0 mg/kg/injection, schedule: Q01DX009 (ip), vehicle: saline with Tween-80
[14] = dose: 200.0 mg/kg/injection, schedule: Q01DX009 (ip), vehicle: saline with Tween-80
[15] = dose: 25.0 mg/kg/injection, schedule: Q04DX002 (ip), vehicle: saline with Tween-80
[16] = dose: 100.0 mg/kg/injection, schedule: Q01DX001 (ip), vehicle: carboxymethylcellulose (CMC)
[17] = dose: 200.0 mg/kg/injection, schedule: Q01DX001 (ip), vehicle: carboxymethylcellulose (CMC)
[18] = dose: 400.0 mg/kg/injection, schedule: Q01DX001 (ip), vehicle: carboxymethylcellulose (CMC)
[19] = dose: 100.0 mg/kg/injection, schedule: Q01DX001 (ip), vehicle: saline with Tween-80
[20] = dose: 200.0 mg/kg/injection, schedule: Q01DX001 (ip), vehicle: saline with Tween-80
[21] = dose: 400.0 mg/kg/injection, schedule: Q01DX001 (ip), vehicle: saline with Tween-80

Measured: T/C

Cc1c2ccccc2cc2cccc[n+]12
inactive: dose: 4.0 mg/kg/injection, schedule: Q01DX015 (ip), vehicle: saline 97 % of control | dose: 5.0 mg/kg/injection, schedule: Q01DX001 (ip), vehicle: saline 98 % of control | dose: 8.0 mg/kg/injection, schedule: Q01DX015 (ip), vehicle: saline 97 % of control | dose: 10.0 mg/kg/injection, schedule: Q01DX001 (ip), vehicle: saline 92 % of control | dose: 16.0 mg/kg/injection, schedule: Q01DX015 (ip), vehicle: saline 110 % of control | dose: 20.0 mg/kg/injection, schedule: Q01DX001 (ip), vehicle: saline 107 % of control | dose: 20.0 mg/kg/injection, schedule: Q04DX003 (ip), vehicle: saline 111 % of control | dose: 26.0 mg/kg/injection, schedule: Q04DX003 (ip), vehicle: saline 111 % of control and 118 % of control | dose: 32.0 mg/kg/injection, schedule: Q01DX015 (ip), vehicle: saline 95 % of control | dose: 40.0 mg/kg/injection, schedule: Q01DX001 (ip), vehicle: saline 112 % of control | dose: 40.0 mg/kg/injection, schedule: Q04DX003 (ip), vehicle: saline 116 % of control and 117 % of control | dose: 60.0 mg/kg/injection, schedule: Q04DX003 (ip), vehicle: saline 122 % of control

O=C1OCCN1/N=C/c1ccc([N+](=O)[O-])o1
inactive: [1] 107 % of control | [2] 105 % of control | [3] 110 % of control | [4] 105 % of control | [5] 97 % of control | [6] 106 % of control

Nc1ncnc2c1ncn2C1OC(COP(=O)(O)O)C(O)C1OCc1ccccc1 (centres undefined)
inactive: dose: 100.0 mg/kg/injection, schedule: Q01DX005 (ip), vehicle: saline 112 % of control | dose: 200.0 mg/kg/injection, schedule: Q01DX005 (ip), vehicle: saline 95 % of control

O=C(O)c1cc(Br)c(-c2c(Br)cc(C(=O)O)cc2[N+](=O)[O-])c([N+](=O)[O-])c1
inactive: dose: 50.0 mg/kg/injection, schedule: Q01DX001 (ip), vehicle: Klucel (hydroxypropylcellulose) (HPC) 95 % of control | dose: 100.0 mg/kg/injection, schedule: Q01DX001 (ip), vehicle: Klucel (hydroxypropylcellulose) (HPC) 106 % of control | dose: 200.0 mg/kg/injection, schedule: Q01DX001 (ip), vehicle: Klucel (hydroxypropylcellulose) (HPC) 95 % of control

O=C(CBr)N=c1cc(-c2ccc(Cl)cc2)ss1
inactive: [7] 95 % of control | [8] 91 % of control | [9] 101 % of control

CCCCCCSCCO
inactive: [10] 94 % of control | [11] 94 % of control | [12] 93 % of control

CCCCCCCCCCCC(=O)OCC1OC2C(Oc3nc(=N)ccn32)C1OC(=O)CCCCCCCCCCC (centres undefined)
active: dose: 12.5 mg/kg/injection, schedule: Q01DX009 (ip), vehicle: water 157 % of control | dose: 25.0 mg/kg/injection, schedule: Q01DX009 (ip), vehicle: water 210 % of control | dose: 50.0 mg/kg/injection, schedule: Q01DX009 (ip), vehicle: water 165 % of control

CC(=O)Nc1ccc(/C=C/C(=O)c2ccc(Cl)cc2)cc1
inactive: [13] 102 % of control | dose: 100.0 mg/kg/injection, schedule: Q04DX003 (ip), vehicle: saline with Tween-80 100 % of control | [14] 89 % of control | dose: 200.0 mg/kg/injection, schedule: Q04DX003 (ip), vehicle: saline with Tween-80 87 % of control | dose: 400.0 mg/kg/injection, schedule: Q01DX009 (ip), vehicle: saline with Tween-80 91 % of control | dose: 400.0 mg/kg/injection, schedule: Q04DX003 (ip), vehicle: saline with Tween-80 90 % of control

Cc1cccc(Cl)c1NC(=O)c1ccc(C(=O)Nc2c(C)cccc2Cl)cc1
inactive: [1] 87 % of control | [3] 94 % of control | [5] 94 % of control

O=c1[nH]cccc1CCc1ccccc1
inactive: [10] 103 % of control | [11] 105 % of control | [12] 111 % of control

CCOC(=O)CCNC1CCCCC1
inactive: dose: 100.0 mg/kg/injection, schedule: Q01DX Z (ip), vehicle: methylcellulose (MC) 96 % of control | dose: 200.0 mg/kg/injection, schedule: Q01DX Z (ip), vehicle: methylcellulose (MC) 94 % of control

CN(C)[Se](=O)Cl (centres undefined)
inactive: dose: 12.5 mg/kg/injection, schedule: Q04DX002 (ip), vehicle: saline with Tween-80 100 % of control | [15] 110 % of control

COC(=O)CC1C(C)(C)C(=O)C2CC3=C4CC(=O)OC(c5ccoc5)C4(C)CCC3C1(C)C2=O (centres undefined)
inactive: [16] 97 % of control | [17] 92 % of control | [18] 90 % of control

C=C1CC2(CCC3(CC2)OCCO3)OC1=O
inactive: [19] 95 % of control | [20] 95 % of control | [21] 98 % of control

O=S(=O)(O)c1ccc2c(ccc3ccccc32)c1
inactive: dose: 75.0 mg/kg/injection, schedule: Q01DX001 (ip), vehicle: saline 96 % of control

c1ccc(CC2CCCCCC2)cc1
inactive: [1] 96 % of control | [2] 100 % of control | dose: 150.0 mg/kg/injection, schedule: Q01DX009 (ip), vehicle: Klucel (hydroxypropylcellulose) (HPC) 101 % of control | [3] 102 % of control | [4] 91 % of control | [6] 96 % of control

CN1CCN(Cc2nc3cccc4c3c([n+]2[O-])-c2ccccc2-4)CC1
inactive: dose: 12.5 mg/kg/injection, schedule: Q01DX009 (ip), vehicle: saline with Tween-80 101 % of control | dose: 25.0 mg/kg/injection, schedule: Q01DX009 (ip), vehicle: saline with Tween-80 105 % of control | dose: 50.0 mg/kg/injection, schedule: Q01DX009 (ip), vehicle: saline with Tween-80 103 % of control | [13] 114 % of control | [14] 123 % of control

CCN(/N=C/c1ccc([N+](=O)[O-])o1)C(N)=O
inactive: [15] 100 % of control | dose: 50.0 mg/kg/injection, schedule: Q04DX002 (ip), vehicle: saline with Tween-80 103 % of control

CC(=O)c1ccc2ccccc2c1O
inactive: dose: 100.0 mg/kg/injection, schedule: Q01DX009 (ip), vehicle: other 97 % of control | [7] 101 % of control | dose: 200.0 mg/kg/injection, schedule: Q01DX009 (ip), vehicle: other 103 % of control | [8] 90 % of control | dose: 400.0 mg/kg/injection, schedule: Q01DX009 (ip), vehicle: other 106 % of control | [9] 88 % of control

ClC(Cl)(Cl)c1ccc(C2OCCO2)cc1
inactive: dose: 177.0 mg/kg/injection, schedule: Q01DX001 (ip), vehicle: other 98 % of control | dose: 266.0 mg/kg/injection, schedule: Q01DX001 (ip), vehicle: other 110 % of control | dose: 400.0 mg/kg/injection, schedule: Q01DX001 (ip), vehicle: other 94 % of control | dose: 600.0 mg/kg/injection, schedule: Q01DX001 (ip), vehicle: other 111 % of control

C(=Nc1cccnc1)c1c[nH]c2ccccc12
inactive: [1] 95 % of control | [3] 86 % of control | [5] 89 % of control

C(CCCCCC1CCC2CCCC2C1)CCCCC1CCC2CCCC2C1 (centres undefined)
inactive: [19] 87 % of control | [20] 101 % of control | [21] 87 % of control

CCC(Cl)COP(=O)(OCC(Cl)CC)C(C)P(=O)(OCC(Cl)CC)OCC(Cl)CC (centres undefined)
inactive: dose: 62.5 mg/kg/injection, schedule: Q04DX003 (ip), vehicle: Klucel (hydroxypropylcellulose) (HPC) 96 % of control | dose: 125.0 mg/kg/injection, schedule: Q04DX003 (ip), vehicle: Klucel (hydroxypropylcellulose) (HPC) 97 % of control | dose: 250.0 mg/kg/injection, schedule: Q04DX003 (ip), vehicle: Klucel (hydroxypropylcellulose) (HPC) 96 % of control

Cn1c(N)c(N=Nc2ccc(S(=O)(=O)Nc3ncccn3)cc2)c(=O)n(C)c1=O
inactive: [16] 98 % of control | [17] 98 % of control | [18] 95 % of control

CC(=O)N(N=O)c1ccc([N+](=O)[O-])cc1Cl
inactive: dose: 50.0 mg/kg/injection, schedule: Q01DX001 (ip), vehicle: saline 102 % of control | [10] 102 % of control | [11] 100 % of control | [12] 102 % of control

Source: PubChem BioAssay AID248 (DTP/NCI, 2004)
